Measured values taken from patent US20240067639A1, “SMALL MOLECULES THAT TARGET THE RNA THAT CAUSES ALS” (EXPANSION THERAPEUTICS, INC., priority 2020, published 2024).
pIC50, pKi: −log10 of the molar value. Read-outs that look alike come from different tables or passages of the source.

Experiments:
[1] = test system: RAN translation of (G4C2)66-No ATG-GFP in HEK293T cells; test: Cell-based assay of RAN translation inhibition (GFP/mCherry reporter); conditions: Homo sapiens, HEK-293T; for IC25: 24 h, read-out: RANT IC25
[2] = target: biotinylated r(G4C2)8 RNA and hnRNP H1-His6; test: TR-FRET hnRNP H binding assay
Experimental: TR-FRET hnRNP H Binding Assay. The TR-FRET assays were performed as previously described (Disney et al., 2012) except the final concentrations of biotinylated r(G4C2)8 (SEQ ID NO: 2) RNA and hnRNP H1-His6 were 80 nM and 75 nM, respectively. The RNA was folded by heating to 95° C. for 5 min in 1× Folding Buffer followed by slowly cooling to room temperature. The buffer was adjusted to 1×TR-FRET Assay Buffer followed by addition of compound. The mixture was incubated for 15 min at room temperature and then hnRNP H1-His6 was added. After an additional 15 min incubation, streptavidin-XL665 (HTRF, Cisbio Bioassays) and anti-His6-Tb (HTRF, Cisbio Bioassays) were added to a final concentration of 40 nM and 0.44 ng/μL, respectively. After incubating for 1 h, TR-FRET was measured as previously described. The IC50s were either calculated by fitting the equation (1) in Graphpad Prism.

[3] = Table E, inhibition of RAN translation, HEK293T, read-out: IC50
[4] = Table D, HEK293T, 24 h treatment

SMILES	pKi ([2]; Table D)	further results
CCOC(=O)C1=NCCc2c1cc1c([nH]c3ccc(OC)cc31)c2C [Compound 203]	–	pIC50 [1, 3]: < 4.90
COc1ccc2c(c1)c1cc3cnccc3c(C)c1n2Cc1cnn(C)c1 [Compound 14, 9-methoxy-5-methyl-6-((1-methyl-1H-pyrazol-4-yl)methyl)-6H-pyrido[4,3-b]carbazol]	< 3.70	–
Cc1c2ccncc2cc2c3cc(OCc4ncc[nH]4)ccc3n(C)c12 [Compound 251, 9-((1H-imidazol-2-yl)methoxy)-5,6-dimethyl-6H-pyrido[4,3-b]carbazole]	–	pKi ([2]; Table F): 4.72
COCCNC(=O)c1ccc2c(c1)c1cc3cnccc3c(C)c1n2C [Example 79, N-(2-methoxyethyl)-5,6-dimethyl-6H-pyrido[4,3-b]carbazole-9-carboxamide]	–	IC25 [1, 4]: 1.1 µM
COc1ccc2[nH]c3c(C)c4ccnc(C(=O)NCCO)c4cc3c2c1 [Compound 207]	–	pIC50 [1, 3]: 5.22
CCOC(=O)c1nccc2c(C)c3c(cc12)c1cc(OC)ccc1n3C [Compound 204, Ethyl-9-methoxy-5,6-dimethyl-6H-pyrido[4,3-b]carbazole-1-carboxylate]	–	pIC50 [1, 3]: 4.90
CCCNC(=O)c1nccc2c(C)c3[nH]c4ccc(OC)cc4c3cc12 [Compound 206]	–	pIC50 [1, 3]: < 4.90
COc1ccc2c(c1)c1cc3cnccc3c(C)c1n2Cc1ccncc1 [Compound 16, 9-methoxy-5-methyl-6-(pyridin-4-ylmethyl)-6H-pyrido[4,3-b]carbazole]	< 3.70	–
Cc1c2ccncc2cc2c3cc(C(=O)NCCN)ccc3n(C)c12 [Example 74, N-(2-aminoethyl)-5,6-dimethyl-6H-pyrido[4,3-b]carbazole-9-carboxamide]	–	IC25 [1, 4]: > 5 µM
COc1ccc2c(c1)c1cc3cnccc3c(C)c1n2C(C)C [Compound 18, 6-isopropyl-9-methoxy-5-methyl-6H-pyrido[4,3-b]carbazole]	< 3.70	–
Cc1c2ccncc2cc2c3cc(OCCN4CCC(O)CC4)ccc3n(C)c12 [Compound 228, 1-(2-((5,6-dimethyl-6H-pyrido[4,3-b]carbazol-9-yl)oxy)ethyl)piperidin-4-ol]	–	IC25 [1]: 1.3 µM
CCOC(=O)c1nccc2c(C)c3[nH]c4ccc(OC)cc4c3cc12 [Compound 202, Ethyl-9-methoxy-5-methyl-6H-pyrido[4,3-b]carbazole-1-carboxylate]	–	pIC50 [1, 3]: 4.92
COc1ccc2[nH]c3c(C)c4ccnc(C(=O)NCCN(C)C)c4cc3c2c1 [Compound 209]	–	pIC50 [1, 3]: 5.51
COc1ccc2c(c1)c1cc3cnccc3c(C)c1n2CC1=NCCN1 [Compound 21, 6-((4,5-dihydro-1H-imidazol-2-yl)methyl)-9-methoxy-5-methyl-6H-pyrido[4,3-b]carbazole]	< 3.70	–
COc1ccc2c(c1)c1cc3cnccc3c(C)c1n2Cc1ccccc1 [Compound 17, 6-benzyl-9-methoxy-5-methyl-6H-pyrido[4,3-b]carbazole]	< 3.70	–
Cc1c2ccncc2cc2c3cc(OCC(=O)O)ccc3n(C)c12 [Compound 4b, 2-((5,6-dimethyl-6H-pyrido[4,3-b]carbazol-9-yl)oxy)acetic acid]	< 3.70	–
COc1ccc2c(c1)c1cc3cnccc3c(C)c1n2C[C@@H](O)c1ccccc1 [Compound 19, (S)-2-(9-methoxy-5-methyl-6H-pyrido[4,3-b]carbazol-6-yl)-1-phenylethan-1-ol]	< 3.70	–

SMILES	pKi ([2]; Table D)	further results
Cc1c2ccncc2cc2c3ccc(OCCN4CCOCC4)cc3n(C)c12 [Example 53, 4-(2-((5,6-dimethyl-6H-pyrido[4,3-b]carbazol-8-yl)oxy)ethyl)morpholine]	< 3.70	–
Cc1c2ccncc2cc2c3cc(OCC#N)ccc3n(C)c12 [Compound 13, 2-((5,6-dimethyl-6H-pyrido[4,3-b]carbazol-9-yl)oxy)acetonitrile]	< 3.70	–
COc1ccc2c(c1)c1cc3c(C(=O)O)nccc3c(C)c1n2C [Compound 24, 9-methoxy-5,6-dimethyl-6H-pyrido[4,3-b]carbazole-1-carboxylic acid]	< 3.70	–
Cc1c2ccncc2cc2c3cc(C(=O)OCCN(C)C)ccc3n(C)c12 [Compound 239, 2-(dimethylamino)ethyl 5,6-dimethyl-6H-pyrido[4,3-b]carbazole-9-carboxylate]	–	pKi ([2]; Table F): 4.62
Cc1c2ccncc2cc2c3cc(OCCN4CCCC4)ccc3n(C)c12 [Compound 7, 5,6-dimethyl-9-(2-(pyrrolidin-1-yl)ethoxy)-6H-pyrido[4,3-b]carbazole]	–	IC25 [1, 4]: > 5 µM
Cc1c2ccncc2cc2c3cc(C(=O)N4CCNCC4)ccc3n(C)c12 [Example 72, (5,6-dimethyl-6H-pyrido[4,3-b]carbazol-9-yl)(piperazin-1-yl)methanone]	–	IC25 [1, 4]: > 5 µM
CN(C)CCOc1ccc2c(c1)c1cc3ncccc3cc1n2C [Compound 226, N,N-dimethyl-2-((6-methyl-6H-pyrido[3,2-b]carbazol-9-yl)oxy)ethanamine]	–	pKi ([2]; Table F): 4.89
Cc1c2ccncc2cc2c3cc(Oc4ccccn4)ccc3n(C)c12 [Compound 305, 5,6-dimethyl-9-(pyridin-2-yloxy)-6H-pyrido[4,3-b]carbazole]	–	pIC50 ([1]; read-out: RANT IC50): 4.74
Cc1c2ccnc(C(C)C)c2cc2c3cc(C(=O)NCCN(C)C)ccc3n(C)c12 [Compound 238, N-(2-(dimethylamino)ethyl)-1-isopropyl-5,6-dimethyl-6H-pyrido[4,3-b]carbazole-9-carboxamide]	–	pKi ([2]; Table F): 4.70
COc1ccc2c(c1)c1cc3c(C(=O)NCCN(C)C)nccc3c(C)c1n2C [Compound 211]	–	pIC50 [1, 3]: 5.51
COc1ccc2c(c1)c1cc3cnccc3c(C)c1n2CCCN1CCN(C)CC1 [Compound 22, 9-methoxy-5-methyl-6-(3-(4-methylpiperazin-1-yl)propyl)-6H-pyrido[4,3-b]carbazole]	< 3.70	–
Cc1c2ccncc2cc2c3cc(C(=O)NCCOC(C)(C)C)ccc3n(C)c12 [Compound 301, N-(2-(tert-butoxy)ethyl)-5,6-dimethyl-6H-pyrido[4,3-b]carbazole-9-carboxamide]	–	pIC50 ([1]; Table G, HEK293T, read-out: RANT IC50): 4.89
COc1ccc2[nH]c3c(C)c4ccnc(C(=O)NCCN)c4cc3c2c1 [Compound 208]	–	pIC50 [1, 3]: 5.66
COc1ccc2[nH]c3c(C)c4ccnc(C(=O)NCCCN(C)C)c4cc3c2c1 [Compound 210]	–	pIC50 [1, 3]: 4.99
COCCNC(=O)c1nccc2c(C)c3[nH]c4ccc(OC)cc4c3cc12 [Compound 205]	–	pIC50 [1, 3]: 4.90
COc1ccc2c(c1)c1cc3c(C(=O)N[C@H](C)CN(C)C)nccc3c(C)c1n2C [Compound 212, (R)—N-(1-(dimethylamino)propan-2-yl)-9-methoxy-5,6-dimethyl-6H-pyrido[4,3-b]carbazole-1-carboxamide]	–	pIC50 [1, 3]: 5.51

Now from value to molecule, other results behind:

pKi ([2]; Table D)	SMILES	further results
6.00	Cc1c2ccncc2cc2c3cc(OCC(=O)NCCCN(C)C)ccc3n(C)c12 [Example 58, 2-((5,6-dimethyl-6H-pyrido[4,3-b]carbazol-9-yl)oxy)-N-(3(dimethylamino)propyl)-acetamide]	–
4.68	Cc1c2ccncc2cc2c3cc(OCC(=N)N)ccc3n(C)c12 [Example 45, 2-((5,6-dimethyl-6H-pyrido[4,3-b]carbazol-9-yl)oxy)acetimidamide]	–
5.00	Cc1c2ccncc2cc2c3cc(OCCCC(=N)N)ccc3n(C)c12 [Example 44a, 4-((5,6-dimethyl-6H-pyrido[4,3-b]carbazol-9-yl)oxy)butanimidamide]	–
5.89	Cc1c2ccncc2cc2c3cc(OCC(=O)NCCN(C)C)ccc3n(C)c12 [Example 59, 2-((5,6-dimethyl-6H-pyrido[4,3-b]carbazol-9-yl)oxy)-N-(2-(dimethylamino)ethyl)-acetamide]	–
< 3.70	COc1ccc2[nH]c3c(C)c4cnccc4cc3c2c1 [Example 49, 7-methoxy-11-methyl-10H-pyrido[3,4-b]carbazole]	–
4.57	Cc1c2ccncc2cc2c3cc(OCC4=NCCN4)ccc3n(CCCN3CCN(C)CC3)c12 [Example 43, 9-((4,5-dihydro-1H-imidazol-2-yl)methoxy)-5-methyl-6-(3-(4-methylpiperazin-1-yl)propyl)-6H-pyrido[4,3-b]carbazole]	–
< 3.70	COc1ccc2[nH]c3c(c2c1)C(=O)c1cnccc1C3=O [Example 47, 9-methoxy-5H-pyrido[4,3-b]carbazole-5,11(6H)-dione]	–
5.38	COc1cccc2c1c1cc3c(C(=O)N[C@H](C)CN(C)C)nccc3c(C)c1n2C [Example 65, (R)—N-(1-(dimethylamino)propan-2-yl)-10-methoxy-5,6-dimethyl-6H-pyrido[4,3-b]carbazole-1-carboxamide]	–
< 3.70	Cc1c2ccncc2cc2c1sc1ccc(OCCN3CCOCC3)cc12 [Example 81, 4-[2-(5-methylbenzothiopheno[2,3-g]isoquinolin-9-yl)oxyethyl]morpholine]	–
< 3.70	COc1ccc2sc3c(C)c4ccncc4cc3c2c1 [Example 67, 9-methoxy-5-methyl-benzothiopheno[2,3-g]isoquinoline]	–
< 3.70	COC(=O)CCCOc1ccc2c(c1)c1cc3cnccc3c(C)c1n2C [Example 44b, methyl 4-((5,6-dimethyl-6H-pyrido[4,3-b]carbazol-9-yl)oxy)butanoate]	–
